Reference: ChEMBL document CHEMBL4017476, “Synthesis of novel 5,6-dehydrokawain analogs as osteogenic inducers and their action mechanisms” (Bioorg Med Chem Lett, 2017)
Calls of active or inactive are those of the source. The calls are words filed in the database; no cut-off is given here.

Tests used:
[1] = tested on: MC3T3-E1; experiment: Osteogenic activity in mouse MC3T3-E1 cells assessed as increase in ALP activity at 30 uM measured after 4 days relative to control; type: functional
[2] = tested on: MC3T3-E1; experiment: Osteogenic activity in mouse MC3T3-E1 cells assessed as increase in mineralization at 30 uM measured after 10 days by alizarin red S staining based assay; type: functional, cell-based
[3] = tested on: MC3T3-E1; experiment: Cytotoxicity against mouse MC3T3-E1 cells assessed as cell number at 30 uM measured after 4 days by WST-8 assay relative to control; type: cell-based; settings: mc3t3-e1, 96 h
[4] = tested on: RAW264; experiment: Inhibition of RANKL-stimulated osteoclastogenesis in mouse RAW264 cells assessed as reduction in TRAP activity at 20 uM measured after 72 hrs by microscopic analysis; type: functional, cell-based
[5] = species: Mus musculus; experiment: Activation of BMP signaling pathway in mouse MC3T3-E1 cells assessed as increase in Osterix mRNA expression after 2 days by SYBR green-dye based RT-PCR method; type: cell-based
[6] = species: Mus musculus; experiment: Activation of BMP signaling pathway in mouse MC3T3-E1 cells assessed as increase in Runx2 mRNA expression after 2 days by SYBR green-dye based RT-PCR method; type: cell-based
[7] = tested on: MC3T3-E1; experiment: Osteogenic activity in mouse MC3T3-E1 cells assessed as increase in mineralization at 30 uM measured after 10 days in presence of BMP2 inhibitor noggin by alizarin red S staining based assay; type: functional, cell-based
[8] = tested on: MC3T3-E1; experiment: Osteogenic activity in mouse MC3T3-E1 cells assessed as increase in mineralization at 30 uM measured after 10 days in presence of p38 MAPK inhibitor SB203580 by alizarin red S staining based assay; type: functional, cell-based
[9] = molecular target: T1, MAP kinase p38 (Mus musculus) (UniProt P47811+O08911+Q9WUI1+Q9Z1B7); experiment: Induction of p38 MAPK phosphorylation in mouse MC3T3-E1 cells assessed as ratio of phosphorylated p38 to unphosphorylated p38 protein level at 30 uM measured after 30 mins by Western blot analysis relative to control; type: cell-based
[10] = molecular target: T1, MAP kinase p38 (Mus musculus); experiment: Induction of p38 MAPK phosphorylation in mouse MC3T3-E1 cells assessed as ratio of phosphorylated p38 to unphosphorylated p38 protein level at 30 uM measured after 15 mins by Western blot analysis relative to control; type: cell-based
[11] = molecular target: T2, SMAD1/5/9 (Mus musculus) (UniProt P70340+P97454+Q9JIW5); experiment: Induction of Smad1/5/8 phosphorylation in mouse MC3T3-E1 cells assessed as ratio of phosphorylated Smad1/5/8 to actin beta protein level at 30 uM measured after 15 mins by Western blot analysis relative to control; type: cell-based
[12] = species: Mus musculus; experiment: Activation of BMP signaling pathway in mouse MC3T3-E1 cells assessed as increase in Bglap mRNA expression at 10 uM after 2 days by SYBR green-dye based RT-PCR method relative to control; type: cell-based
[13] = tested on: RAW264; experiment: Inhibition of RANKL-stimulated osteoclastogenesis in mouse RAW264 cells assessed as reduction in TRAP-positive multinucleated cells at 20 uM measured after 72 hrs by TRAP staining based microscopic analysis; type: functional, cell-based
[14] = species: Mus musculus; experiment: Activation of BMP signaling pathway in mouse MC3T3-E1 cells assessed as increase in Bglap mRNA expression after 2 days by SYBR green-dye based RT-PCR method; type: cell-based
[15] = species: Mus musculus; experiment: Activation of BMP signaling pathway in mouse MC3T3-E1 cells assessed as increase in Alpl mRNA expression after 2 days by SYBR green-dye based RT-PCR method; type: cell-based
[16] = tested on: MC3T3-E1; experiment: Osteogenic activity in mouse MC3T3-E1 cells assessed as increase in mineralization at 30 uM measured after 10 days in presence of type-1 BMP receptor kinase inhibitor LDN-193189 by alizarin red S staining based assay; type: functional, cell-based
[17] = molecular target: T2, SMAD1/5/9 (Mus musculus); experiment: Induction of Smad1/5/8 phosphorylation in mouse MC3T3-E1 cells assessed as ratio of phosphorylated Smad1/5/8 to actin beta protein level at 30 uM measured after 30 mins by Western blot analysis relative to control; type: cell-based
[18] = species: Mus musculus; experiment: Activation of BMP signaling pathway in mouse MC3T3-E1 cells assessed as increase in Osterix mRNA expression at 10 uM after 2 days by SYBR green-dye based RT-PCR method relative to control; type: cell-based
[19] = molecular target: T1, MAP kinase p38 (Mus musculus); experiment: Induction of p38 MAPK phosphorylation in mouse MC3T3-E1 cells assessed as ratio of phosphorylated p38 to unphosphorylated p38 protein level at 30 uM measured after 5 mins by Western blot analysis relative to control; type: cell-based
[20] = species: Mus musculus; experiment: Activation of BMP signaling pathway in mouse MC3T3-E1 cells assessed as increase in Runx2 mRNA expression at 10 uM after 2 days by SYBR green-dye based RT-PCR method relative to control; type: cell-based
[21] = molecular target: T2, SMAD1/5/9 (Mus musculus); experiment: Induction of Smad1/5/8 phosphorylation in mouse MC3T3-E1 cells assessed as ratio of phosphorylated Smad1/5/8 to actin beta protein level at 30 uM measured after 5 mins by Western blot analysis relative to control; type: cell-based
[22] = species: Mus musculus; experiment: Activation of BMP signaling pathway in mouse MC3T3-E1 cells assessed as increase in Alpl mRNA expression at 10 uM after 2 days by SYBR green-dye based RT-PCR method relative to control; type: cell-based
[23] = tested on: MC3T3-E1; experiment: Osteogenic activity in mouse MC3T3-E1 cells assessed as increase in ALP activity at 10 uM measured after 4 days relative to control; type: functional, cell-based
[24] = tested on: MC3T3-E1; experiment: Osteogenic activity in mouse MC3T3-E1 cells assessed as increase in mineralization at 10 uM measured after 10 days by alizarin red S staining based assay; type: functional, cell-based
[25] = tested on: MC3T3-E1; experiment: Osteogenic activity in mouse MC3T3-E1 cells assessed as increase in mineralization at 0.1 to 60 uM measured after 10 days by alizarin red S staining based assay; type: functional, cell-based
[26] = tested on: MC3T3-E1; experiment: Osteogenic activity in mouse MC3T3-E1 cells assessed as increase in mineralization at 60 uM measured after 10 days by alizarin red S staining based assay; type: functional, cell-based
[27] = tested on: MC3T3-E1; experiment: Osteogenic activity in mouse MC3T3-E1 cells assessed as increase in ALP activity at 60 uM measured after 4 days relative to control; type: functional
[28] = tested on: MC3T3-E1; experiment: Cytotoxicity against mouse MC3T3-E1 cells assessed as cell number at 60 uM measured after 4 days by WST-8 assay relative to control; type: cell-based; settings: mc3t3-e1, 96 h

For `CCOc1ccc(/C=C/c2cc(OC)cc(=O)o2)cc1`, the “fold change (FC)” value [1] was 1.32 - 2.87, the Activity [2] was “Active” and the fold change (FC) [3] was 0.85 to 1.25.

In the case of `CCCc1ccc(/C=C/c2cc(OC)cc(=O)o2)cc1`, the fold change (FC) [3] is reported as 0.85 to 1.25.

`CC(C)Oc1ccc2c(=O)c(-c3ccccc3)coc2c1` was tested, and the inhibition [4] was “Active”.

For `COc1cc(/C=C/c2ccc(C(F)(F)F)cc2)oc(=O)c1`, the “fold change (FC)” value [1] was 1.32 - 2.87, the Activity [2] was “Active” and the fold change (FC) [3] was 0.85 to 1.25.

For `CCc1ccccc1/C=C/c1cc(OC)cc(=O)o1`, the Activity [1] was “inactive”, the Activity [2] was “inactive” and the fold change (FC) [3] was 0.85 to 1.25.

With `CCc1ccc(/C=C/c2cc(OC)cc(=O)o2)cc1` the Activity [5] was “Dose-dependent effect”, the “fold change (FC)” value [1] was 1.32 - 2.87 and the Activity [6] was “Dose-dependent effect”. For the same compound, the Activity [7] was “inactive”, the Activity [8] was “inactive” and the Ratio [9] was 1.2. For the same compound, the Activity [2] was “Active”, the Ratio [10] was 1.7 and the Ratio [11] was 1. The fold change (FC) [12] was 1.92, the inhibition [13] was “Active” and the Activity [14] was “Dose-dependent effect”. For the same compound, the Activity [15] was “Dose-dependent effect”, the fold change (FC) [3] was 0.85 to 1.25 and the Activity [16] was “inactive”. For the same compound, the Ratio [17] was 1, the fold change (FC) [18] was 2.61 and the Ratio [19] was 1.8. For the same compound, the inhibition [4] was “Active”, the fold change (FC) [20] was 1.5 and the Ratio [21] was 1.1. It also gave a fold change (FC) [22] of 2.23.

For `COc1cc(/C=C/c2ccc(C(C)(C)C)cc2)oc(=O)c1`, the Activity [23] was “Active”, the fold change (FC) [3] was 0.85 to 1.25 and the Activity [24] was “Active”.

In the case of `COc1cc(/C=C/c2ccsc2)oc(=O)c1`, the Activity [1] is reported as “inactive”, the Activity [2] is reported as “inactive” and the fold change (FC) [3] is reported as 0.85 to 1.25.

`COc1cc(/C=C/c2ccc(Cl)cc2)oc(=O)c1` was tested, and the “fold change (FC)” value [1] was 1.32 - 2.87, the Activity [2] was “Active” and the fold change (FC) [3] was 0.85 to 1.25.

For `COc1cc(/C=C/C2CC2)oc(=O)c1`, the Activity [1] was “inactive”, the Activity [2] was “inactive” and the fold change (FC) [3] was 0.85 to 1.25.

For `C#Cc1ccc(/C=C/c2cc(OC)cc(=O)o2)cc1`, the “fold change (FC)” value [1] was 1.32 - 2.87, the Activity [2] was “Active” and the fold change (FC) [3] was 0.85 to 1.25.

With `COc1cc(/C=C/C2CCCCC2)oc(=O)c1` the “fold change (FC)” value [1] was 1.32 - 2.87, the Activity [2] was “Active” and the fold change (FC) [3] was 0.85 to 1.25.

In the case of `CCOc1cc(/C=C/c2ccccc2)oc(=O)c1`, the Activity [2] is reported as “inactive”, the Activity [25] is reported as “inactive” and the fold change (FC) [3] is reported as 0.85 to 1.25.

With `COc1cc(/C=C/c2cccc(C)c2)oc(=O)c1` the Activity [1] was “Active”, the Activity [2] was “Active” and the fold change (FC) [3] was 0.85 to 1.25.

For `COc1cc(/C=C/c2ccccc2)oc(=O)c1` [DESMETHOXYYANGONIN], the Activity [26] was “Active”, the “fold change (FC)” value [27] was 1.25 and the Activity [25] was “Active”. The fold change (FC) [3] was 0.85 to 1.25, the inhibition [4] was “inactive” and the fold change (FC) [28] was 0.85 to 1.25.

With `COc1ccc(/C=C/c2cc(OC)cc(=O)o2)cc1` [YANGONIN] the Activity [1] was “inactive”, the Activity [2] was “inactive” and the fold change (FC) [3] was 0.85 to 1.25.

In the case of `COc1cc(/C=C/c2ccccc2)oc(=O)c1C`, the Activity [2] is reported as “inactive”, the Activity [25] is reported as “inactive” and the fold change (FC) [3] is reported as 0.85 to 1.25.

With `COc1cc(/C=C/c2ccccc2C)oc(=O)c1` the Activity [1] was “Active”, the Activity [2] was “Active” and the fold change (FC) [3] was 0.85 to 1.25.

`CCCOc1cc(/C=C/c2ccccc2)oc(=O)c1` was tested, and the Activity [2] was “inactive” and the Activity [25] was “inactive”.

In the case of `COc1cc(/C=C/C2CCCC2)oc(=O)c1`, the Activity [1] is reported as “inactive”, the Activity [2] is reported as “inactive” and the fold change (FC) [3] is reported as 0.85 to 1.25.

For `COc1cc(/C=C/c2ccc(C)cc2)oc(=O)c1`, the Activity [1] was “Active”, the Activity [2] was “Active” and the fold change (FC) [3] was 0.85 to 1.25.

In the case of `CCc1cccc(/C=C/c2cc(OC)cc(=O)o2)c1`, the Activity [1] is reported as “Active”, the Activity [2] is reported as “Active” and the fold change (FC) [3] is reported as 0.85 to 1.25.

`COc1cc(/C=C/c2ccc(F)cc2)oc(=O)c1` was tested, and the Activity [1] was “inactive”, the Activity [2] was “inactive” and the fold change (FC) [3] was 0.85 to 1.25.

`CCCCc1ccc(/C=C/c2cc(OC)cc(=O)o2)cc1` was tested, and the Activity [5] was “Dose-dependent effect”, the Activity [1] was “Active” and the Activity [23] was “Active”. The Activity [6] was “Dose-dependent effect”, the Activity [7] was “inactive” and the Activity [8] was “inactive”. The Ratio [9] was 1.1, the Activity [2] was “Active” and the Ratio [10] was 1.5. The Ratio [11] was 1.1, the fold change (FC) [12] was 1.33 and the inhibition [13] was “Active”. For the same compound, the Activity [14] was “Dose-dependent effect”, the Activity [15] was “Dose-dependent effect” and the fold change (FC) [3] was 0.85 to 1.25. The Activity [16] was “inactive”, the Ratio [17] was 1.1 and the fold change (FC) [18] was 2.41. For the same compound, the Ratio [19] was 1.6, the inhibition [4] was “Active” and the fold change (FC) [20] was 1.42. For the same compound, the Activity [24] was “Active”, the Ratio [21] was 1.1 and the fold change (FC) [22] was 2.09.
